Results: US20070021434A1, “NON-NUCLEOSIDE ANTI-HEPACIVIRUS AGENTS AND USES THEREOF” (Migenix Inc., priority 2005, published 2007)

target: HCV RdRp (NS5B) (UniProt P26663); type: biochemical, hepatitis C virus
Sequence (P26663 whole entry, looked up): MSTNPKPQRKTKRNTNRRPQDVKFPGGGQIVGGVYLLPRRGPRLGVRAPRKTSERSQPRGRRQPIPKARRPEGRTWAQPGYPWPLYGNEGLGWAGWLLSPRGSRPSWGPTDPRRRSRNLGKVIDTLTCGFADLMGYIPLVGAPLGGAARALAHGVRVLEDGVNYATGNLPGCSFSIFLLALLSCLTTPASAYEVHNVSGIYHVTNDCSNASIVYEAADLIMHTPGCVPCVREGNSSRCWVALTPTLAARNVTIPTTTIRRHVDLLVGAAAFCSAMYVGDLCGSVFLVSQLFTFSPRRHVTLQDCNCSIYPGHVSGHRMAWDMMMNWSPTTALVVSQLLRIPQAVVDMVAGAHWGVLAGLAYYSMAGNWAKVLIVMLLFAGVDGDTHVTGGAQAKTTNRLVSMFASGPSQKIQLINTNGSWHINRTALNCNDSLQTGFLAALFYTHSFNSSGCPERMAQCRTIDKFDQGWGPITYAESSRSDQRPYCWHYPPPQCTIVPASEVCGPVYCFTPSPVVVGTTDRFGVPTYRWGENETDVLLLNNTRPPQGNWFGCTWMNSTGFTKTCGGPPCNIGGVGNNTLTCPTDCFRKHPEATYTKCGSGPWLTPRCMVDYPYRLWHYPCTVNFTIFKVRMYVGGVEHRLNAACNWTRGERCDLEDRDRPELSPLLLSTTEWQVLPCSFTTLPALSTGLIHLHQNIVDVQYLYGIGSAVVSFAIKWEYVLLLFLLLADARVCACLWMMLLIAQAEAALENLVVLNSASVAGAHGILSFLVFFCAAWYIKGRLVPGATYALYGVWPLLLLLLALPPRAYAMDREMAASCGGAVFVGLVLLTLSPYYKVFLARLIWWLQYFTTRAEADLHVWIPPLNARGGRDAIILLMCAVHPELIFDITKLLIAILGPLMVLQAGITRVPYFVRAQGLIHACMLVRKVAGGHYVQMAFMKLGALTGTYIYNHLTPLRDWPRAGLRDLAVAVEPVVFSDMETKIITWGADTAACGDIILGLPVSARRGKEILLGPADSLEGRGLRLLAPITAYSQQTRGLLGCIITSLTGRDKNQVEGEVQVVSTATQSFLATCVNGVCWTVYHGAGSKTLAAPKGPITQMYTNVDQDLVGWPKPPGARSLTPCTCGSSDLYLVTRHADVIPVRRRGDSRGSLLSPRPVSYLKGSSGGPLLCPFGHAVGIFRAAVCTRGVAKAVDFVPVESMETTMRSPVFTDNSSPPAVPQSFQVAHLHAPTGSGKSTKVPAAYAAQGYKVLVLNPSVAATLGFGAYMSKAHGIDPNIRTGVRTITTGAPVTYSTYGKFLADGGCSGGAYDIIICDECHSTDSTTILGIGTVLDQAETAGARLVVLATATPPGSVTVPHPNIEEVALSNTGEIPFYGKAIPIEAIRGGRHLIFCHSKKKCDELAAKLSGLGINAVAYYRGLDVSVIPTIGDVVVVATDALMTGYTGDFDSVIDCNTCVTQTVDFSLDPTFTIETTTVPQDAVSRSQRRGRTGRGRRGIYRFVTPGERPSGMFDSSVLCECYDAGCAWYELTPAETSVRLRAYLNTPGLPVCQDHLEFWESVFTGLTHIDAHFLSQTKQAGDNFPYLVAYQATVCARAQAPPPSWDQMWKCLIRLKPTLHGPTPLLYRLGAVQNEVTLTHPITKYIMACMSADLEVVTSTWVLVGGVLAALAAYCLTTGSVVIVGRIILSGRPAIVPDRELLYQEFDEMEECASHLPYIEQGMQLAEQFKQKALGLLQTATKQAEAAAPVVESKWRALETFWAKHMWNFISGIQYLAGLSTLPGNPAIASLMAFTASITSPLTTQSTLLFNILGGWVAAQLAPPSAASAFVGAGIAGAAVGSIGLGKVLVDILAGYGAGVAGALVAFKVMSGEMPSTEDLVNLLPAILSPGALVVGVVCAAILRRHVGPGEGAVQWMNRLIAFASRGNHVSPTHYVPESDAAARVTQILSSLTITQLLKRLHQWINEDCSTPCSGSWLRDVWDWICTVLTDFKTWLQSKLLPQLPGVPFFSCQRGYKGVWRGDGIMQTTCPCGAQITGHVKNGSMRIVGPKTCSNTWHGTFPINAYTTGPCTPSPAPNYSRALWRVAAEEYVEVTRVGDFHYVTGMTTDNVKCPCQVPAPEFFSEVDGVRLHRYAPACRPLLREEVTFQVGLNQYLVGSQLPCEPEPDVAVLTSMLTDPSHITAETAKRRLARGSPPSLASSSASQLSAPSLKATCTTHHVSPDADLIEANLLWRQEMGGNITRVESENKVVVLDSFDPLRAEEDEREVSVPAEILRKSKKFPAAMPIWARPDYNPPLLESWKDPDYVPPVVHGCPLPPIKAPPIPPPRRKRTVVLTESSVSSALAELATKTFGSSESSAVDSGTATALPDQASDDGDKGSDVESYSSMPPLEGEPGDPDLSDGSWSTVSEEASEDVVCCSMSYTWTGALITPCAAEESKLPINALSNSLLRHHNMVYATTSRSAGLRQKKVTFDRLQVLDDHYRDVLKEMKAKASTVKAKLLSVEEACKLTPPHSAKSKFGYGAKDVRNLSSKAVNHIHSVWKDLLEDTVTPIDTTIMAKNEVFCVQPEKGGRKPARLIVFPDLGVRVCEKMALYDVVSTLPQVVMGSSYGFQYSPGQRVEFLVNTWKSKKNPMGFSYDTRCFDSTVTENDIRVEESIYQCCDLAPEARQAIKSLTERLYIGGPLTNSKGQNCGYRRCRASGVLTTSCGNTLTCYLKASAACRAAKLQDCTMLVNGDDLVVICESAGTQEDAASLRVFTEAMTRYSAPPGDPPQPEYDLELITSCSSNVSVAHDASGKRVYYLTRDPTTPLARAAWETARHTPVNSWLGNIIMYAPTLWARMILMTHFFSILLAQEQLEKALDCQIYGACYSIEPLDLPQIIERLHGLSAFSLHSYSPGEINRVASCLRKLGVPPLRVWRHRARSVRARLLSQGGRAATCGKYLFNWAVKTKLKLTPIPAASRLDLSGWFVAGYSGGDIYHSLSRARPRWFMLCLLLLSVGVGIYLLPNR

Row | SMILES | IC50 [µM]
1 | Cc1ccc(NC(=O)C2CN(C(=O)CN)CCN2C(=O)Nc2ccc(OCc3ccccc3)cc2)cc1 (racemic) [Compound 308, (±)-4-(2-AMINO-ACETYL)-PIPERAZINE-1,2-DICARBOXYLIC ACID 1-[(4-BENZYLOXY-PHENYL)-AMIDE]2-P-TOLYLAMIDE] | > 50
2 | O=C(CC1CNCCN1C(=O)OCC1c2ccccc2-c2ccccc21)Nc1ccc(C2CCCCC2)cc1 (stereo not drawn) [Compound 155, 2-[(4-CYCLOHEXYL-PHENYLCARBAMOYL)-METHYL]-PIPERAZINE-1-CARBOXYLIC ACID 9H-FLUOREN-9-YLMETHYL ESTER] | 10 to 50
3 | Cc1ccc(NC(=O)[C@H](CCCCN)NC(=O)Nc2ccc(OCc3ccccn3)cc2)cc1 [Compound 299, (S)-6-AMINO-2-{3-[4-(PYRIDIN-2-YLMETHOXY)-PHENYL]-UREIDO}-HEXANOIC ACID P-TOLYLAMIDE] | 10 to 50
4 | Cc1ccccc1NC(=O)C(CCCCN)NC(=O)OCC1c2ccccc2-c2ccccc21 [Compound 45, (S)-(5-AMINO-1-O-TOLYLCARBAMOYL-PENTYL)-CARBAMIC ACID 9H-FLUOREN-9-YLMETHYL ESTER] | > 50
5 | NCCCCCCNC(=O)[C@@H](NC(=O)OCC1c2ccccc2-c2ccccc21)c1ccccc1 [Compound 313, (S)-[(6-AMINO-HEXYLCARBAMOYL)-PHENYL-METHYL]-CARBAMIC ACID 9H-FLUOREN-9-YLMETHYL ESTER] | 10 to 50
6 | NCCCCC(NC(=O)OCC1c2ccccc2-c2ccccc21)C(=O)NCc1ccccc1 (stereo in doubt) [Compound 21, (S)-(5-AMINO-1-BENZYLCARBAMOYL-PENTYL)-CARBAMIC ACID 9H-FLUOREN-9-YLMETHYL ESTER] | > 50
7 | Cc1ccc(NC(=O)[C@H](CCCCN)NC(=O)NCc2ccc(Cl)c(Cl)c2)cc1 [Compound 140, (S)-6-AMINO-2-[3-(3,4-DICHLORO-BENZYL)-UREIDO]-HEXANOIC ACID P-TOLYLAMIDE] | 10 to 50
8 | Cc1ccc(NC(=O)[C@H](CCCCN)NC(=O)CNCCc2ccccc2)cc1 [Compound 334, (S)-6-AMINO-2-(2-PHENETHYLAMINO-ACETYLAMINO)-HEXANOIC ACID P-TOLYLAMIDE] | > 50
9 | Cc1ccc(NC(=O)C(CCCNC(=O)C2CCCN2)NC(=O)OCC2c3ccccc3-c3ccccc32)cc1 [Compound 220, (S)-{4-[R-(PYRROLIDINE-2-CARBONYL)-AMINO]-1-P-TOLYLCARBAMOYL-BUTYL}-CARBAMIC ACID 9H-FLUOREN-9-YLMETHYL ESTER] | > 50
10 | Cc1ccc(NC(=O)C(CCCCN)NC(=O)CC2c3ccccc3-c3ccccc32)cc1 [Compound 53, (S)-6-AMINO-2-(2-9H-FLUOREN-9-YL-ACETYLAMINO)-HEXANOIC ACID P-TOLYLAMIDE] | > 50
11 | COc1cccc(NCC(=O)N[C@@H](CCCCN)C(=O)Nc2ccc(C)cc2)c1 [Compound 358, (S)-6-AMINO-2-[2-(3-METHOXY-PHENYLAMINO)-ACETYLAMINO]-HEXANOIC ACID P-TOLYLAMIDE] | 10 to 50
12 | Cc1ccc(NC(=O)C(CCCCN)NC(=O)CN(C)Cc2ccccc2)cc1 [Compound 353, (S)-6-AMINO-2-[2-(BENZYL-METHYL-AMINO)-ACETYLAMINO]-HEXANOIC ACID P-TOLYLAMIDE] | > 50
13 | Cc1ccc(NC(=O)C(CCCCN)NC(=O)c2ccccc2-c2ccccc2)cc1 [Compound 54, (S)-BIPHENYL-2-CARBOXYLIC ACID (5-AMINO-1-P-TOLYLCARBAMOYL-PENTYL)-AMIDE] | > 50
14 | NCCCC[C@H](NC(=O)OCC1c2ccccc2-c2ccccc21)C(=O)Nc1ccncc1 [Compound 232, (S)-[5-AMINO-1-(PYRIDIN-4-YLCARBAMOYL)-PENTYL]-CARBAMIC ACID 9H-FLUOREN-9-YLMETHYL ESTER] | > 50
15 | NCCCC[C@@H](NC(=O)Nc1cccc2ccccc12)C(=O)Nc1ccc(CN(C(=O)c2ccco2)C2CCCCC2)cc1 [Compound 32, (R)-FURAN-2-CARBOXYLIC ACID {4-[6-AMINO-2-(3-NAPHTHALEN-1-YL-UREIDO)-HEXANOYLAMINO]-BENZYL}-CYCLOHEXYL-AMIDE] | > 50
16 | Cc1ccc(NC(=O)C(CCCCN)NC(=O)Nc2cccc(-c3nc4ccccc4o3)c2)cc1 [Compound 257, (S)-6-AMINO-2-[3-(3-BENZOOXAZOL-2-YL-PHENYL)-UREIDO]-HEXANOIC ACID P-TOLYLAMIDE] | > 50
17 | O=C(CC1CNCCN1C(=O)NCc1ccc(Cl)cc1)Nc1ccc(C2CCCCC2)cc1 (stereo not drawn) [Compound 159, 2-[(4-CYCLOHEXYL-PHENYLCARBAMOYL)-METHYL]-PIPERAZINE-1-CARBOXYLIC ACID 4-CHLORO-BENZYLAMIDE] | 10 to 50
18 | CC[C@H](NC(=O)OCC1c2ccccc2-c2ccccc21)C(=O)Nc1ccc(CN(C(=O)c2ccco2)C2CCCCC2)cc1 [Compound 28, (S)-[1-(4-{[CYCLOHEXYL-(FURAN-2-CARBONYL)-AMINO]-METHYL}-PHENYLCARBAMOYL)-PROPYL]-CARBAMIC ACID 9H-FLUOREN-9-YLMETHYL ESTER] | > 50
19 | Cc1ccc(NC(=O)C2CCCN2C(=O)OCC2c3ccccc3-c3ccccc32)cc1 [Compound 86, (R)-2-P-TOLYLCARBAMOYL-PYRROLIDINE-1-CARBOXYLIC ACID 9H-FLUOREN-9-YLMETHYL ESTER] | > 50
20 | Cc1ccc(NC(=O)C(CCCCN)NC(=O)Nc2ccccc2-c2ccccc2)cc1 [Compound 73, (S)-6-AMINO-2-(3-BIPHENYL-2-YL-UREIDO)-HEXANOIC ACID P-TOLYLAMIDE] | > 50

Row | SMILES | IC50 [µM]
21 | NCCC[C@@H](NC(=O)Nc1ccc2c(c1)Cc1ccccc1-2)C(=O)Nc1ccc(C2CCCCC2)cc1 [Compound 203, (R)-5-AMINO-2-[3-(9H-FLUOREN-2-YL)-UREIDO]-PENTANOIC ACID (4-CYCLOHEXYL-PHENYL)-AMIDE] | < 10
22 | Cc1ccc(NC(=O)[C@H](CCCNC(=O)CN)NC(=O)Nc2ccc(OCc3ccccc3)cc2)cc1 [Compound 322, (S)-5-(2-AMINO-ACETYLAMINO)-2-[3-(4-BENZYLOXY-PHENYL)-UREIDO]-PENTANOIC ACID P-TOLYLAMIDE] | 10 to 50
23 | Cc1ccc(NC(=O)[C@H](CCCCN)NC(=O)Nc2ccc(OCc3cc(F)ccc3F)cc2)cc1 [Compound 286, (S)-6-AMINO-2-{3-[4-(2,5-DIFLUORO-BENZYLOXY)-PHENYL]-UREIDO}-HEXANOIC ACID P-TOLYLAMIDE] | < 10
24 | Cc1ccc(NC(=O)C(Cc2cccs2)NC(=O)OCC2c3ccccc3-c3ccccc32)cc1 [Compound 381, (S)-(2-THIOPHEN-2-YL-1-P-TOLYLCARBAMOYL-ETHYL)-CARBAMIC ACID 9H-FLUOREN-9-YLMETHYL ESTER] | > 50
25 | Cc1ccc(NC(=O)C(CCCCN)NC(=O)Nc2ccc(N3CCCCC3)cc2)cc1 [Compound 269, (S)-6-AMINO-2-[3-(4-PIPERIDIN-1-YL-PHENYL)-UREIDO]-HEXANOIC ACID P-TOLYLAMIDE] | > 50
26 | Cc1ccc(NC(=O)C(CCCCN)NC(=O)Nc2ccc(CN(C)c3ccc(C)cc3)cc2)cc1 [Compound 292, (S)-6-AMINO-2-(3-{4-[(METHYL-P-TOLYL-AMINO)-METHYL]-PHENYL}-UREIDO)-HEXANOIC ACID P-TOLYLAMIDE] | > 50
27 | Cc1ccc(NC(=O)[C@H](CCCCN)NC(=O)Nc2ccc(OCc3cccc(F)c3F)cc2)cc1 [Compound 284, (S)-6-AMINO-2-{3-[4-(2,3-DIFLUORO-BENZYLOXY)-PHENYL]-UREIDO}-HEXANOIC ACID P-TOLYLAMIDE] | 10 to 50
28 | Cc1ccc(NC(=O)[C@H](CCCCN)NS(=O)(=O)c2ccccc2)cc1 [Compound 387, (S)-6-AMINO-2-BENZENESULFONYLAMINO-HEXANOIC ACID P-TOLYLAMIDE] | > 50
29 | Cc1ccc(NC(=O)[C@H](CCCCN)NC(=O)CNCc2cccc(F)c2)cc1 [Compound 345, (S)-6-AMINO-2-[2-(3-FLUORO-BENZYLAMINO)-ACETYLAMINO]-HEXANOIC ACID P-TOLYLAMIDE] | > 50
30 | NCCCC[C@H](NC(=O)Nc1ccc(OCc2ccccc2)cc1)C(=O)NCc1ccco1 [Compound 302, (S)-6-AMINO-2-[3-(4-BENZYLOXY-PHENYL)-UREIDO]-HEXANOIC ACID (FURAN-2-YLMETHYL)-AMIDE] | > 50
31 | Cc1ccc(NC(=O)[C@H](CCCCN)NC(=O)CNc2cccc(F)c2)cc1 [Compound 360, (S)-6-AMINO-2-[2-(3-FLUORO-PHENYLAMINO)-ACETYLAMINO]-HEXANOIC ACID P-TOLYLAMIDE] | 10 to 50
32 | NCCCC[C@@H](NC(=O)NCc1ccc(Cl)c(Cl)c1)C(=O)Nc1ccc(C2CCCCC2)cc1 [Compound 165, (R)-6-AMINO-2-[3-(3,4-DICHLORO-BENZYL)-UREIDO]-HEXANOIC ACID (4-CYCLOHEXYL-PHENYL)-AMIDE] | 10 to 50
33 | Cc1ccc(NC(=O)C(CCCCN(C)C)NC(=O)OCC2c3ccccc3-c3ccccc32)cc1 [Compound 124, (S)-(5-DIMETHYLAMINO-1-P-TOLYLCARBAMOYL-PENTYL)-CARBAMIC ACID 9H-FLUOREN-9-YLMETHYL ESTER] | > 50
34 | Cc1ccc(NC(=O)C(CCCCN)NC(=O)Nc2cccc3ccccc23)cc1 [Compound 71, (S)-6-AMINO-2-(3-NAPHTHALEN-1-YL-UREIDO)-HEXANOIC ACID P-TOLYLAMIDE] | > 50
35 | CC(=O)NCCCCC(NC(=O)OCC1c2ccccc2-c2ccccc21)C(=O)Nc1ccc(C)cc1 [Compound 181, (S)-(5-ACETYLAMINO-1-P-TOLYLCARBAMOYL-PENTYL)-CARBAMIC ACID 9H-FLUOREN-9-YLMETHYL ESTER] | > 50
36 | Cc1ccc(NC(=O)[C@H](CCCCN)NC(=O)Nc2ccc(OCc3cccnc3)cc2)cc1 [Compound 261, (S)-6-AMINO-2-{3-[4-(PYRIDIN-3-YLMETHOXY)-PHENYL]-UREIDO}-HEXANOIC ACID P-TOLYLAMIDE] | > 50
37 | NCCCC[C@H](NC(=O)Nc1ccc(OCc2ccccc2)cc1)C(=O)OCCN [Compound 259, (S)-6-AMINO-2-[3-(4-BENZYLOXY-PHENYL)-UREIDO]-HEXANOIC ACID (2-AMINO-ETHYL)-ESTER] | > 50
38 | Cc1cc(NC(=O)[C@H](CCCCN)NC(=O)Nc2ccc(OCc3ccccc3)cc2)n(-c2ccccc2)n1 [Compound 316, (S)-6-AMINO-2-[3-(4-BENZYLOXY-PHENYL)-UREIDO]-HEXANOIC ACID (5-METHYL-2-PHENYL-2H-PYRAZOL-3-YL)-AMIDE] | 10 to 50
39 | Cc1ccc(NC(=O)CC2CNCCN2C(=O)OCC2c3ccccc3-c3ccccc32)cc1 (stereo not drawn) [Compound 197, 2-(P-TOLYLCARBAMOYL-METHYL)-PIPERAZINE-1-CARBOXYLIC ACID 9H-FLUOREN-9-YLMETHYL ESTER] | > 50
